Read-outs that look alike come from different tables or passages of the source.
Biological target: T1, human GPR120 (Homo sapiens, UniProt Q5NUL3)
T1 construct: host or cells: HEK293 cells coexpressing Gqi5
T1 sequence (Q5NUL3 1-361): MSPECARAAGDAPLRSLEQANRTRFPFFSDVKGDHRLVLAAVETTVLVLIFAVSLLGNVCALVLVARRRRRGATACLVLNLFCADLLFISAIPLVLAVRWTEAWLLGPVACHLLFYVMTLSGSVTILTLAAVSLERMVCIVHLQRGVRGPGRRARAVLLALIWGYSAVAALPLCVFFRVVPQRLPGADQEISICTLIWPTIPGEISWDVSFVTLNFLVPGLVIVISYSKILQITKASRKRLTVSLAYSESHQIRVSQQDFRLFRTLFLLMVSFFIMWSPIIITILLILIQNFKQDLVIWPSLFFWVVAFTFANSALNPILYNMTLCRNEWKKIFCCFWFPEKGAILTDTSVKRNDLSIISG
Experiment: Intracellular Ca2+ (FLIPR Calcium 4, Flexstation) assay in human GPR120 stable HEK293 cell line coexpressing Gqi5
Format: cell-based
Conditions: for % Activity at 5 μM: 5 μM compound compared to the maximal activity of GW9508 at 6.7 μM (100%); for EC50: human GPR120 stably expressing cells, 8 concentrations 0.00001 to 20 μM
Outline: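 Calcium 4 dye-loaded HEK293 cells expressing N-terminally Flag-tagged human GPR120 with Gqi5 (HBSS/20 mM HEPES, pH 7.4; 50 min, 37 °C). Fluorescence (485/525 nm) read for 90 s after addition of compound at 8 concentrations, 0.00001–20 μM; EC50 from Max−Min change. % activity at 5 μM versus maximal GW9508 response (6.7 μM).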

[1] = read-out: EC50 between >1 μM and ≦10 μM

Row | % Activity at 5 μM [%] | EC50 (read-out: EC50 ≦ 1 μM) [nM] | EC50 [1] [nM] | EC50 (read-out: EC50 > 10 μM) [nM] | SMILES
1 | 85 | ≤ 1000 | – | – | Cc1cc(COc2c(F)cc(CC(C)C(=O)O)cc2F)n(-c2ccc(C(C)C)cc2)n1 (centres unmarked) [Example 76, 3-(3,5-difluoro-4-((1-(4-isopropylphenyl)-3-methyl-1H-pyrazol-5-yl)methoxy)phenyl)-2-methylpropanoic acid]
2 | 100 | ≤ 1000 | – | – | Cc1onc(-c2ccccc2)c1C(=O)COc1c(F)cc(CCC(=O)O)cc1F [Example 26, 3-(3,5-difluoro-4-(2-(5-methyl-3-phenylisoxazol-4-yl)-2-oxoethoxy)phenyl)propanoic acid]
3 | 106 | ≤ 1000 | – | – | Cc1ccc(-n2nc(C)cc2COc2c(F)cc(CC(C)C(=O)O)cc2F)cc1 (centres unmarked) [Example 84, 3-(3,5-difluoro-4-((3-methyl-1-p-tolyl-1H-pyrazol-5-yl)methoxy)phenyl)-2-methylpropanoic acid]
4 | 88 | ≤ 1000 | – | – | O=C(O)CCc1cc(F)c(OCc2sccc2-n2cccc2)c(F)c1 [Example 20, 3-(4-((3-(1H-pyrrol-1-yl)thiophen-2-yl)methoxy)-3,5-difluorophenyl)propanoic acid]
5 | 94 | ≤ 1000 | – | – | Cc1onc(-c2ccccc2)c1COc1c(F)cc(CC(C)C(=O)O)cc1F (centres unmarked) [Example 37, 3-(3,5-difluoro-4-((5-methyl-3-phenylisoxazol-4-yl)methoxy)phenyl)-2-methylpropanoic acid]
6 | 77 | ≤ 1000 | – | – | Cc1onc(-c2ccc(F)cc2)c1COc1c(F)cc(CCC(=O)O)cc1F [Example 18, 3-(3,5-difluoro-4-((3-(4-fluorophenyl)-5-methylisoxazol-4-yl)methoxy)phenyl)propanoic acid]
7 | 75 | – | 1000 to 10000 | – | Cc1onc(-c2c(Cl)cccc2Cl)c1COc1c(F)cc(CCC(=O)O)cc1F [Example 22, 3-(4-((3-(2,6-dichlorophenyl)-5-methylisoxazol-4-yl)methoxy)-3,5-difluorophenyl)propanoic acid]
8 | 91 | ≤ 1000 | – | – | Cc1cc(COc2c(F)cc(CC(C)C(=O)O)cc2F)n(-c2ccccc2)n1 (centres unmarked) [Example 122, 3-(3,5-difluoro-4-((3-methyl-1-phenyl-1H-pyrazol-5-yl)methoxy)phenyl)-2-methylpropanoic acid]
9 | 86 | ≤ 1000 | – | – | Cc1cc(COc2c(F)cc(COCC(=O)O)cc2F)n(-c2ccc(Cl)cc2)n1 [Example 35, 2-(4-((1-(4-chlorophenyl)-3-methyl-1H-pyrazol-5-yl)methoxy)-3,5-difluorobenzyloxy)acetic acid]
10 | 19 | – | – | > 10000 | Cc1cc(COc2c(F)cc(CC(C)C(=O)O)cc2F)n(-c2ncc(Cl)cn2)n1 (centres unmarked) [Example 110, 3-(4-((1-(5-Chloropyrimidin-2-yl)-3-methyl-1H-pyrazol-5-yl)methoxy)-3,5-difluorophenyl)-2-methylpropanoic acid]
11 | 88 | ≤ 1000 | – | – | CCc1ccc(-n2nc(C)cc2COc2c(F)cc(CC(C)C(=O)O)cc2F)cc1 (centres unmarked) [Example 83, 3-(4-((1-(4-ethylphenyl)-3-methyl-1H-pyrazol-5-yl)methoxy)-3,5-difluorophenyl)-2-methylpropanoic acid]
12 | 92 | ≤ 1000 | – | – | Cc1cc(COc2c(Cl)cc(CC(C)C(=O)O)cc2Cl)n(-c2ccc(Cl)cc2)n1 (centres unmarked) [Example 113, 3-(3,5-Dichloro-4-((1-(4-chlorophenyl)-3-methyl-1H-pyrazol-5-yl)methoxy)phenyl)-2-methylpropanoic acid]
13 | 112 | ≤ 1000 | – | – | Cc1cc(COc2c(F)cc(CCCC(=O)O)cc2F)n(-c2ccc(Cl)cc2)n1 [Example 128, 4-(4-((1-(4-chlorophenyl)-3-methyl-1H-pyrazol-5-yl)methoxy)-3,5-difluorophenyl)butanoic acid]
14 | 80 | – | 1000 to 10000 | – | Cc1nc(-c2ccccc2)c(COc2c(F)cc(CCC(=O)O)cc2F)s1 [Example 30]
15 | 67 | – | – | > 10000 | CCc1ccc(-n2nc(C)cc2COc2ccc3c(c2)CCCC3CC(=O)O)cc1 (centres unmarked) [Example 123, 2-(6-((1-(4-ethylphenyl)-3-methyl-1H-pyrazol-5-yl)methoxy)-1,2,3,4-tetrahydronaphthalen-1-yl)acetic acid]
16 | 48 | ≤ 1000 | – | – | Cc1cc(COc2c(F)cc(CC(F)C(=O)O)cc2F)n(-c2ccc(Cl)cc2)n1 (centres unmarked) [Example 54, 3-(4-((1-(4-chlorophenyl)-3-methyl-1H-pyrazol-5-yl)methoxy)-3,5-difluorophenyl)-2-fluoropropanoic acid]
17 | 100 | ≤ 1000 | – | – | Cc1cc(COc2ccc3c(c2)CCC3CC(=O)O)n(-c2ccc(Cl)cc2)n1 (centres unmarked) [Example 59, 2-(5-((1-(4-chlorophenyl)-3-methyl-1H-pyrazol-5-yl)methoxy)-2,3-dihydro-1H-inden-1-yl)acetic acid]
18 | 87 | – | 1000 to 10000 | – | C/C(=C\C(=O)O)Cc1ccc(OCc2snnc2-c2ccc(Cl)cc2)cc1 [Example 69, (E)-4-(4-((4-(4-chlorophenyl)-1,2,3-thiadiazol-5-yl)methoxy)phenyl)-3-methylbut-2-enoic acid]
19 | 109 | ≤ 1000 | – | – | CCc1ccc(-n2nccc2COc2c(F)cc(CC(C)C(=O)O)cc2F)cc1 (centres unmarked) [Example 100, 3-(4-((1-(4-ethylphenyl)-1H-pyrazol-5-yl)methoxy)-3,5-difluorophenyl)-2-methylpropanoic acid]
20 | 88 | ≤ 1000 | – | – | O=C(O)CCc1cc(F)c(OCc2snnc2-c2ccc(Cl)cc2)c(F)c1 [Example 62, 3-(4-((4-(4-chlorophenyl)-1,2,3-thiadiazol-5-yl)methoxy)-3,5-difluorophenyl)propanoic acid]
21 | 9 | – | – | > 10000 | Cc1cc(COc2c(F)cc(CC(C)C(=O)O)cc2F)n(-c2ccc(C(N)=O)cc2)n1 (centres unmarked) [Example 79, 3-(4-((1-(4-carbamoylphenyl)-3-methyl-1H-pyrazol-5-yl)methoxy)-3,5-difluorophenyl)-2-methylpropanoic acid]
22 | 94 | ≤ 1000 | – | – | Cc1cc(COc2ccc3c(c2)CCC3CC(=O)O)n(-c2ccc3c(c2)CCC3)n1 (centres unmarked) [Example 120, 2-(5-((1-(2,3-dihydro-1H-inden-5-yl)-3-methyl-1H-pyrazol-5-yl)methoxy)-2,3-dihydro-1H-inden-1-yl)acetic acid]
23 | 97 | ≤ 1000 | – | – | COc1ccc(-c2noc(C)c2COc2c(F)cc(CCC(=O)O)cc2F)cc1 [Example 21, 3-(3,5-difluoro-4-((3-(4-methoxyphenyl)-5-methylisoxazol-4-yl)methoxy)phenyl)propanoic acid]
24 | 112 | ≤ 1000 | – | – | Cc1cc(COc2ccc(CCCC(=O)O)cc2)n(-c2ccc(Cl)cc2)n1 [Example 127, 4-(4-((1-(4-chlorophenyl)-3-methyl-1H-pyrazol-5-yl)methoxy)phenyl)butanoic acid]
25 | 79 | ≤ 1000 | – | – | CC(C)c1cc(COc2c(F)cc(CCC(=O)O)cc2F)n(-c2ccccc2)n1 [Example 1, 3-(3,5-difluoro-4-((3-isopropyl-1-phenyl-1H-pyrazol-5-yl)methoxy)phenyl)propanoic acid]

From patent US20100216827A1 (Metabolex, Inc., priority 2008, published 2010)
